# Measured values: patent US20160100579A1, “NEMATICIDAL N-(2-SUBSTITUTED 2-PHENYLETHYL)CARBOXAMIDES AND N-(2-SUBSTITUTED 2-PHENYLETHYL)-THIOCARBOXAMIDES” (priority 2013, published 2016)
# Assays:
# [1] = tested on: Haemonchus contortus; test: Haemonchus contortus - Test (HAEMCO); assay type: in vivo; conditions: after 5 days, 100% = all larvae killed
# Experimental: Haemonchus contortus—Test (HAEMCO)
# Solvent: dimethyl sulfoxide
# To produce a suitable preparation of active compound, 10 mg of active compound are dissolved in 0.5 ml solvent, and the concentrate is diluted with “Ringer's solution” to the desired concentration.
# Approximately 40 larvae of the red stomach worm (Haemonchus contortus) are transferred into a test tube containing compound solution.
# After 5 days percentage of larval mortality is recorded. 100% efficacy means all larvae are killed, 0% efficacy means no larvae are killed.
# [2] = Measurement of log P values by HPLC on reversed phase columns (EEC directive 79/831 Annex V.A8; methods [a] pH 2.3, [b] pH 2.7, [c] pH 7.8); assay type: physicochemical
# Experimental: Measurement of log P-values:
# Measurement of log P values was performed according EEC directive 79/831 Annex V.A8 by HPLC (High Performance Liquid Chromatography) on reversed phase columns with the following methods:
# ^[a] Measurement was done at pH 2.3 with 0.1% phosphoric acid and acetonitrile as eluent with a linear gradient from 10% acetonitrile to 95% acetonitrile.
# ^[b] measurement of LC-MS was done at pH 2.7 with 0.1% formic acid in water and with acetonitrile (contains 0.1% formic acid) as eluent with a linear gradient from 10% acetonitrile to 95% acetonitrile.
# ^[c] Measurement with LC-MS was done at pH 7.8 with 0.001 molar ammonium hydrogen carbonate solution in water as eluent with a linear gradient from 10% acetonitrile to 95% acetonitrile.
# Calibration was done with not branched alkan2-ones (with 3 to 16 carbon atoms) with known log P-values (measurement of log P values using retention times with linear interpolation between successive alkanones).. lambda-maX-values were determined using UV-spectra from 200 nm to 400 nm and the peak values of the chromatographic signals.
# [3] = tested on: Meloidogyne incognita; test: Meloidogyne incognita - test (MELGIN); assay type: in vivo; conditions: 20 ppm; salad seedlings in sand; after 14 days; 100% = no galls found
# Experimental: Meloidogyne incognita—test (MELGIN)
# Solvent: 125.0 parts by weight of acetone
# To produce a suitable preparation of active compound, 1 part by weight of active compound is mixed with the stated amount of solvent, and the concentrate is diluted with water to the desired concentration.
# Vessels are filled with sand, a solution of the active ingredient, a suspension containing eggs and larvae of the southern root-knot nematode (Meloidogyne incognita) and salad seeds. The salad seeds germinate and the seedlings grow. Galls develop in the roots.
# After 14 days the nematicidal activity is determined on the basis of the percentage of gall formation. 100% means that no galls were found; 0% means the number of galls found on the roots of the treated plants was equal to that in untreated control plants.
# [4] = method [b]: LC-MS, pH 2.7, 0.1% formic acid in water / acetonitrile
# [5] = method [c]: LC-MS, pH 7.8, 0.001 molar ammonium hydrogen carbonate / acetonitrile
# [6] = method [b]: LC-MS at pH 2.7, 0.1% formic acid in water / acetonitrile
# [7] = method [c]: LC-MS at pH 7.8, 0.001 molar ammonium hydrogen carbonate in water / acetonitrile
# [8] = method [a]: HPLC, pH 2.3, 0.1% phosphoric acid / acetonitrile
structure (smiles),measurement,setting,value
COC(CNC(=O)c1ccoc1I)c1ccc(Cl)cc1 (stereo not drawn) [Compound 71],activity (efficacy: larval mortality),[1]; 100 ppm,90%
same,logP,[2]; [4],2.92^[b]
same,logP,[2]; [5],2.90^[c];
CCOC(c1ccc(Cl)cc1Cl)C(C)NC(=O)c1cccnc1Cl (stereo not drawn) [Compound 106],nematicidal activity (percentage of gall formation),[3],90%
same,logP,[2]; [4],3.59^[b]
COC(c1ccc(Cl)cc1)C(C)NC(=O)c1ccccc1Br (stereo not drawn) [Compound 131],activity (efficacy: larval mortality),[1]; 20 ppm,90%
same,log P,[2]; [6],3.29^[b]
same,log P,[2]; [7],3.30^[c];
COC(c1ccc(Cl)cc1Cl)C1(NC(=O)c2cccnc2Cl)CC1 (stereo not drawn) [Compound 98],activity (efficacy: larval mortality),[1]; 20 ppm,80%
same,logP,[2]; [4],3.00^[b]
COC(c1ccc(Cl)cc1)C(C)NC(=O)c1sccc1Cl (stereo not drawn) [Compound 66],activity (efficacy: larval mortality),[1]; 20 ppm,90%
same,logP,[2]; [4],3.83^[b]
same,logP,[2]; [5],3.83^[c];
COC(c1ccc(Cl)cc1)C(C)NC(=O)c1ccccc1C(F)F (stereo not drawn) [Compound 136],activity (efficacy: larval mortality),[1]; 20 ppm,80%
same,log P,[2]; [6],3.46^[b]
same,log P,[2]; [7],3.42^[c];
COC(c1ccc(Cl)cc1Cl)C(C)NC(=O)c1sccc1C (stereo not drawn) [Compound 58],activity (efficacy: larval mortality),[1]; 100 ppm,80%
same,logP,[2]; [4],4.05^[b]
same,logP,[2]; [5],4.02^[c];
COC(c1ccc(Cl)cc1)C(C)NC(=O)c1ccoc1C (stereo not drawn) [Compound 59],activity (efficacy: larval mortality),[1]; 100 ppm,90%
same,logP,[2]; [4],3.21^[b]
COC(CNC(=O)c1cn(C)nc1C(F)F)c1cc(Cl)cc(Cl)c1 (stereo not drawn) [Compound 25],nematicidal activity (percentage of gall formation),[3],90%
C#CCOC(CNC(=O)c1sccc1C)c1ccc(Cl)cc1 (stereo not drawn) [Compound 1],activity (efficacy: larval mortality),[1]; 100 ppm,80%
same,logP,[2]; [8],3.18^[a]
CCOC(c1ccc(Cl)cc1Cl)C(C)NC(=O)c1nccnc1Cl (stereo not drawn) [Compound 214],log P,[2]; [6],3.89^[b]
same,log P,[2]; [7],3.85^[c];
CCC(NC(=O)c1cccnc1C(F)F)C(OC)c1ccc(Cl)cc1Cl (stereo not drawn) [Compound 90],logP,[2]; [4],3.35^[b]
COC(c1ccc(Cl)cc1Cl)C(C)NC(=O)c1cc(C)nn1C(F)F (stereo not drawn) [compound 115],logP,[2]; [4],3.73^[b]
COC(c1ccc(Cl)cc1)C(C)(C)NC(=O)c1ccccc1Cl (stereo not drawn) [Compound 84],logP,[2]; [4],4.12^[b]
same,logP,[2]; [5],3.87^[c];
COC(c1ccc(Cl)cc1Cl)C1(NC(=O)c2ccccc2F)CC1 (stereo not drawn) [Compound 155],log P,[2]; [6],3.78^[b]
same,log P,[2]; [7],3.75^[c];
COC(c1ccc(Cl)cc1Cl)C(C)NC(=O)c1cccnc1Cl (stereo not drawn) [Compound 34],activity (efficacy: larval mortality),[1]; 100 ppm,90%
COC(c1ccc(Cl)cc1Cl)C(C)NC(=O)c1cc(C)nn1C (stereo not drawn) [compound 124],log P,[2]; [6],3.08^[b]
COC(c1ccc(Cl)cc1)C(C)NC(=O)c1ccccc1[N+](=O)[O-] (stereo not drawn) [Compound 139],log P,[2]; [6],2.83^[b]
same,log P,[2]; [7],2.93^[c];
COC(CN(C(=O)c1nccnc1C(F)(F)F)C1CC1)c1ccc(Cl)cc1Cl (stereo not drawn) [Compound 168],log P,[2]; [6],4.37^[b]
COC(CNC(=O)c1c(F)cccc1F)c1ccc(Cl)cc1 (stereo not drawn) [Compound 72],logP,[2]; [4],2.81^[b]
same,logP,[2]; [5],2.79^[c];
COC(c1ccc(Cl)cc1)C(C)(C)NC(=O)c1ccccc1C(F)(F)F (stereo not drawn) [Compound 85],logP,[2]; [4],4.25^[b]
same,logP,[2]; [5],3.99^[c];
COC(c1ccc(Cl)cc1Cl)C1(NC(=O)c2c(C(F)F)nn(C)c2Cl)CC1 (stereo not drawn) [Compound 50],logP,[2]; [4],3.70^[b]
COC(c1ccc(Cl)cc1Cl)C1(NC(=O)c2cc([N+](=O)[O-])nn2C(F)F)CC1 (stereo not drawn) [compound 122],log P,[2]; [6],3.94^[b]
COC(c1ccc(Cl)cc1Cl)C(C)N(C(=O)c1nccnc1C(F)(F)F)C1CC1 (stereo not drawn) [Compound 174],log P,[2]; [6],4.69^[b]
COC(CNC(=O)c1cn(C)nc1C(F)F)c1ccccc1 (stereo not drawn) [Compound 16],logP,[2]; [4],1.93^[b]
COC(c1ccc(Cl)cc1)C(C)NC(=O)c1ccccc1C (stereo not drawn) [Compound 129],activity (efficacy: larval mortality),[1]; 20 ppm,80%
same,log P,[2]; [6],3.30^[b]
same,log P,[2]; [7],3.20^[c];
COC(c1ccc(Cl)cc1Cl)C1(NC(=O)c2c(F)cccc2F)CC1 (stereo not drawn) [Compound 150],log P,[2]; [6],3.57^[b]
same,log P,[2]; [7],3.53^[c];
COC(c1ccc(Cl)cc1Cl)C1(NC(=O)c2ccccc2[N+](=O)[O-])CC1 (stereo not drawn) [Compound 211],log P,[2]; [6],3.33^[b]
same,log P,[2]; [7],3.26^[c];
COC(c1ccc(F)cc1)C(C)NC(=O)c1c(F)cccc1F (stereo not drawn) [Compound 185],log P,[2]; [6],2.80^[b]
same,log P,[2]; [7],2.76^[c];
COC(c1ccc(Cl)cc1Cl)C(C)(C)NC(=O)c1sccc1Cl (stereo not drawn) [Compound 78],logP,[2]; [4],5.34^[b]
same,logP,[2]; [5],5.31^[c];
COC(CNC(=O)c1nccnc1C(F)(F)F)c1cc(Cl)cc(Cl)c1 (stereo not drawn) [Compound 120],activity (efficacy: larval mortality),[1]; 20 ppm,80%
same,log P,[2]; [6],3.42^[b]
COC(c1ccc(Cl)cc1)C(C)NC(=O)c1ccsc1Br (stereo not drawn) [Compound 63],activity (efficacy: larval mortality),[1]; 100 ppm,100%
same,logP,[2]; [4],3.68^[b]
COC(c1cc(Cl)cc(Cl)c1)C(C)NC(=O)c1cccnc1C(F)F (stereo not drawn) [Compound 93],logP,[2]; [4],2.03^[b]
COC(CNC(=O)c1cccnc1C(F)F)c1ccc(Cl)cc1Cl (stereo not drawn) [Compound 101],logP,[2]; [4],2.80^[b]
CCOC(c1ccc(Cl)cc1Cl)C(C)NC(=O)c1ccccc1F (stereo not drawn) [Compound 195],log P,[2]; [6],4.66^[b]
same,log P,[2]; [7],4.65^[c];
COC(c1ccc(Cl)cc1Cl)C1(NC(=O)c2c(F)cccc2C(F)(F)F)CC1 (stereo not drawn) [Compound 149],log P,[2]; [6],4.00^[b]
same,log P,[2]; [7],3.95^[c];
COC(c1ccc(Cl)cc1)C(C)(C)NC(=O)c1ccccc1F (stereo not drawn) [Compound 83],logP,[2]; [4],4.24^[b]
same,logP,[2]; [5],3.99^[c];
COC(CN(C(=O)C1=C(C)OCCS1)C1CC1)c1ccc(Cl)cc1Cl (stereo not drawn) [Compound 169],log P,[2]; [6],4.11^[b]
COC(CNC(=O)c1ccsc1Cl)c1ccc(Cl)cc1 (stereo not drawn) [Compound 70],activity (efficacy: larval mortality),[1]; 100 ppm,100%
same,logP,[2]; [4],3.15^[b]
same,logP,[2]; [5],3.13^[c];
COC(c1cc(Cl)cc(Cl)c1)C(C)NC(=O)c1nccnc1C(F)(F)F (stereo not drawn) [Compound 95],logP,[2]; [4],3.74^[b]
CCOC(c1ccc(Cl)cc1Cl)C(C)NC(=O)c1c(C(F)F)nn(C)c1Cl (stereo not drawn) [Compound 46],logP,[2]; [4],4.46^[b]
COC(c1ccc(Cl)cc1Cl)C(C)(C)NC(=O)c1ccccc1F (stereo not drawn) [Compound 74],logP,[2]; [4],4.80^[b]
same,logP,[2]; [5],4.77^[c];
COC(c1ccc(Cl)cc1)C(C)NC(=O)c1c(F)cccc1C(F)(F)F (stereo not drawn) [Compound 134],log P,[2]; [6],3.65^[b]
same,log P,[2]; [7],3.61^[c];
COC(c1ccc(Cl)cc1Cl)C1(NC(=O)c2c(C(F)F)nn(C)c2F)CC1 (stereo not drawn) [Compound 51],logP,[2]; [4],3.46^[b]
COC(c1ccc(Cl)cc1Cl)C(C)(C)NC(=O)c1ccccc1C(F)(F)F (stereo not drawn) [Compound 76],logP,[2]; [4],4.68^[b]
same,logP,[2]; [5],4.62^[c];
Cc1ccc(COC(CNC(=O)c2sccc2C)c2ccc(Cl)cc2)cc1 (stereo not drawn) [compound 5],logP,[2]; [8],4.62^[a]
COC(c1ccc(Cl)cc1)C(C)(C)NC(=O)c1sccc1Cl (stereo not drawn) [Compound 86],logP,[2]; [4],4.72^[b]
same,logP,[2]; [5],4.43^[c];
COC(c1ccccc1Cl)C(C)NC(=O)c1cccnc1 (stereo not drawn) [Compound 207],log P,[2]; [6],1.94^[b]
same,log P,[2]; [7],2.09^[c];
COC(c1cc(Cl)cc(Cl)c1)C(C)NC(=O)c1c(C(F)F)nn(C)c1F (stereo not drawn) [Compound 43],logP,[2]; [4],3.70^[b]
COC(c1ccc(Cl)cc1)C(C)NC(=O)c1ccccc1I (stereo not drawn) [Compound 137],log P,[2]; [6],3.44^[b]
same,log P,[2]; [7],3.42^[c];
C#CCOC(c1ccc(Cl)cc1)C(C)(C)NC(=O)c1sccc1C (stereo not drawn) [compound 4],logP,[2]; [8],4.22^[a]
CCC(NC(=O)c1cccnc1Cl)C(OC)c1ccc(Cl)cc1Cl (stereo not drawn) [Compound 89],logP,[2]; [4],3.33^[b]
COC(CNC(=O)c1cccnc1C(F)F)c1cc(Cl)cc(Cl)c1 (stereo not drawn) [Compound 117],log P,[2]; [6],2.88^[b]
COC(c1ccc(Cl)cc1Cl)C(C)(C)N(C)C(=O)c1ccccc1C(F)(F)F (stereo not drawn) [Compound 182],log P,[2]; [6],5.42^[b]
same,log P,[2]; [7],5.34^[c];
COC(c1ccc(Cl)cc1Cl)C(C)NC(=O)c1ccnn1C(F)F (stereo not drawn) [Compound 123],activity (efficacy: larval mortality),[1]; 20 ppm,100%
same,log P,[2]; [6],3.09^[b]
